Results as given in patent US5939399A, “Polyene antibiotics, 3874 H1 to H6, processes for their preparation and use” (Hoechst Aktiengesellschaft, priority 1996, dated 1999).
≈ marks a conversion by molar mass, not a printed value.

Tests used:
[1] = system: A. flavus ATCC 9643; experiment: In vitro microdilution test in RPMI 1640 medium; format: cell-based; conditions: Aspergillus flavus, ATCC9643, 144 h, mold A. flavus ATCC 9643, 6 days at 30° C., read-out: Minimum inhibitory concentration MIC
Method: (§1) In vitro activity on dermatophytes, yeasts and molds
(§2) (microdilution test in RPMI 1640 medium)
(§3) Incubation: 48 h at 35° C. (yeasts) or 6 days at 30° C. (dermatophytes and molds)

[2] = system: A. fumigatus ATCC 9197; experiment: In vitro microdilution test in RPMI 1640 medium; format: cell-based; conditions: Aspergillus fumigatus, ATCC9197, 144 h, mold A. fumigatus ATCC 9197, 6 days at 30° C., read-out: Minimum inhibitory concentration MIC
Method: as §1, §2, §3

[3] = system: A. niger ATCC 16404; experiment: In vitro microdilution test in RPMI 1640 medium; format: cell-based; conditions: Aspergillus niger, ATCC16404, 144 h, mold A. niger ATCC 16404, 6 days at 30° C., read-out: Minimum inhibitory concentration MIC
Method: as §1, §2, §3

[4] = system: C. albicans ATCC 90028; experiment: In vitro microdilution test in RPMI 1640 medium; format: cell-based; conditions: Candida albicans, ATCC90028, yeast C. albicans ATCC 90028, 48 h at 35° C., read-out: Minimum inhibitory concentration MIC
Method: as §1, §2, §3

[5] = system: C. albicans ATCC 90029; experiment: In vitro microdilution test in RPMI 1640 medium; format: cell-based; conditions: Candida albicans, ATCC90029, yeast C. albicans ATCC 90029, 48 h at 35° C., read-out: Minimum inhibitory concentration MIC
Method: as §1, §2, §3

[6] = system: C. glabrata ATCC 90030; experiment: In vitro microdilution test in RPMI 1640 medium; format: cell-based; conditions: Nakaseomyces glabratus, ATCC90030, yeast C. glabrata ATCC 90030, 48 h at 35° C., read-out: Minimum inhibitory concentration MIC
Method: as §1, §2, §3

[7] = system: C. glabrata Berlin 12; experiment: In vitro microdilution test in RPMI 1640 medium; format: cell-based; conditions: Nakaseomyces glabratus, BERLIN12, yeast C. glabrata Berlin 12, 48 h at 35° C., read-out: Minimum inhibitory concentration MIC
Method: as §1, §2, §3

[8] = system: C. krusei 203/230; experiment: In vitro microdilution test in RPMI 1640 medium; format: cell-based; conditions: Pichia kudriavzevii, yeast C. krusei 203/230, 48 h at 35° C., read-out: Minimum inhibitory concentration MIC
Method: as §1, §2, §3

[9] = system: C. krusei Berlin 1; experiment: In vitro microdilution test in RPMI 1640 medium; format: cell-based; conditions: Pichia kudriavzevii, BERLIN1, yeast C. krusei Berlin 1, 48 h at 35° C., read-out: Minimum inhibitory concentration MIC
Method: as §1, §2, §3

[10] = system: C. neoformans ATCC 90112; experiment: In vitro microdilution test in RPMI 1640 medium; format: cell-based; conditions: Cryptococcus neoformans, ATCC90112, yeast C. neoformans ATCC 90112, 48 h at 35° C., read-out: Minimum inhibitory concentration MIC
Method: as §1, §2, §3

[11] = system: C. parapsilosis ATCC 90018; experiment: In vitro microdilution test in RPMI 1640 medium; format: cell-based; conditions: Lodderomyces parapsilosis, ATCC90018, yeast C. parapsilosis ATCC 90018, 48 h at 35° C., read-out: Minimum inhibitory concentration MIC
Method: as §1, §2, §3

[12] = system: C. pseudotropicalis 202/218; experiment: In vitro microdilution test in RPMI 1640 medium; format: cell-based; conditions: Kluyveromyces marxianus, yeast C. pseudotropicalis 202/218, 48 h at 35° C., read-out: Minimum inhibitory concentration MIC
Method: as §1, §2, §3

[13] = system: C. tropicalis 201/201; experiment: In vitro microdilution test in RPMI 1640 medium; format: cell-based; conditions: Candida tropicalis, yeast C. tropicalis 201/201, 48 h at 35° C., read-out: Minimum inhibitory concentration MIC
Method: as §1, §2, §3

[14] = system: C. tropicalis 201/202; experiment: In vitro microdilution test in RPMI 1640 medium; format: cell-based; conditions: Candida tropicalis, yeast C. tropicalis 201/202, 48 h at 35° C., read-out: Minimum inhibitory concentration MIC
Method: as §1, §2, §3

[15] = system: E. floccosum 190/143; experiment: In vitro microdilution test in RPMI 1640 medium; format: cell-based; conditions: Epidermophyton floccosum, 144 h, dermatophyte E. floccosum 190/143, 6 days at 30° C., read-out: Minimum inhibitory concentration MIC
Method: as §1, §2, §3

[16] = system: T. mentagrophytes 100/25; experiment: In vitro microdilution test in RPMI 1640 medium; format: cell-based; conditions: Trichophyton mentagrophytes, 144 h, dermatophyte T. mentagrophytes 100/25, 6 days at 30° C., read-out: Minimum inhibitory concentration MIC
Method: as §1, §2, §3

[17] = system: T. rubrum 101/58; experiment: In vitro microdilution test in RPMI 1640 medium; format: cell-based; conditions: Trichophyton rubrum, 144 h, dermatophyte T. rubrum 101/58, 6 days at 30° C., read-out: Minimum inhibitory concentration MIC
Method: as §1, §2, §3

[18] = system: test microbes; experiment: Agar diffusion test, zones of inhibition; format: cell-based; conditions: for zone of inhibition at 25 µg/mL: concentration 0.025 mg/mL; for zone of inhibition at 25 µg/mL / zone of inhibition at 50 µg/mL / zone of inhibition at 100 µg/mL / zone of inhibition at 200 µg/mL / Zone of inhibition (diameter): agar layer; for zone of inhibition at 25 µg/mL / zone of inhibition at 50 µg/mL / zone of inhibition at 100 µg/mL / zone of inhibition at 200 µg/mL / zone of inhibition at 6.3 µg/mL / zone of inhibition at 12.5 µg/mL: read-out: Zone of inhibition (diameter); for zone of inhibition at 50 µg/mL: concentration 0.05 mg/mL; for zone of inhibition at 100 µg/mL: concentration 0.1 mg/mL; for zone of inhibition at 200 µg/mL: concentration 0.2 mg/mL
Text: The superiority of the antibiotics according to the invention is shown particularly in so-called diffusion tests in which the compounds diffuse in an agar layer containing the test microbes. The diameter of the zones of inhibition is then a measure of the activity of the antibiotics (Table 3).

[19] = Solubility in organic solvents; format: physicochemical
[20] = Chemical stability; format: physicochemical; conditions: for Stability (unstable in / on exposure to): acidic and strongly alkaline solution, light, heat and oxygen; for Stability (stable in): neutral and weakly alkaline medium
[21] = Binding to ergosterol compared with cholesterol

## CC1/C=C/C=C/C=C\C=C/C=C/C=C/C=C/C(OC2OC(C)C(O)C(N)C2O)CC2OC(O)(CC(O)CC(O)CC(O)CCCC(O)CC(O)CC(=O)OC1C(C)CCC(O)CC(=O)c1ccc(N)cc1)CC(O)C2C(=O)O (stereo not drawn) [3874 H1]
[1]
  MIC: 8 µg/mL (≈ 7.28 µM)
[2]
  MIC: 4 µg/mL (≈ 3.64 µM)
[3]
  MIC: 2 µg/mL (≈ 1.82 µM)
[4]
  MIC: 2 µg/mL (≈ 1.82 µM)
[5]
  MIC: 2 µg/mL (≈ 1.82 µM)
[6]
  MIC: 4 µg/mL (≈ 3.64 µM)
[7]
  MIC: 2 µg/mL (≈ 1.82 µM)
[8]
  MIC: 4 µg/mL (≈ 3.64 µM)
[9]
  MIC: 2 µg/mL (≈ 1.82 µM)
[10]
  MIC: 2 µg/mL (≈ 1.82 µM)
[11]
  MIC: 4 µg/mL (≈ 3.64 µM)
[12]
  MIC: 2 µg/mL (≈ 1.82 µM)
[13]
  MIC: 2 µg/mL (≈ 1.82 µM)
[14]
  MIC: 2 µg/mL (≈ 1.82 µM)
[15]
  MIC: 16 µg/mL (≈ 14.6 µM)
[16]
  MIC: 4 µg/mL (≈ 3.64 µM)
[17]
  MIC: 16 µg/mL (≈ 14.6 µM)
[18]
  zone of inhibition at 25 µg/mL: 21 mm
  zone of inhibition at 50 µg/mL: 24 mm
  zone of inhibition at 100 µg/mL: 25 mm
  zone of inhibition at 200 µg/mL: 26 mm
  zone of inhibition at 6.3 µg/mL: 17 mm
  zone of inhibition at 12.5 µg/mL: 19 mm
[19]
  Solubility: soluble in methanol, acetonitrile and chloroform
[20]
  Stability (unstable in / on exposure to): unstable in acidic and strongly alkaline solution and on exposure to light, heat and oxygen
  Stability (stable in): Stable in neutral and weakly alkaline medium

## CNc1ccc(C(=O)CC(O)CCC(C)C2OC(=O)CC(O)CC(O)CCCC(O)CC(O)CC(O)CC3(O)CC(O)C(C(=O)O)C(CC(OC4OC(C)C(O)C(N)C4O)/C=C/C=C/C=C/C=C\C=C/C=C/C=C/C2C)O3)cc1 (stereo not drawn) [3874 H2]
[19]
  Solubility: soluble in methanol, acetonitrile and chloroform
[20]
  Stability (unstable in / on exposure to): unstable in acidic and strongly alkaline solution and on exposure to light, heat and oxygen
  Stability (stable in): Stable in neutral and weakly alkaline medium

## C/C=C/C=C/C(=O)CC(O)CCC(C)C1OC(=O)CC(O)CC(O)CCCC(O)CC(O)CC(O)CC2(O)CC(O)C(C(=O)O)C(CC(OC3OC(C)C(O)C(N)C3O)/C=C/C=C/C=C/C=C\C=C/C=C/C=C/C1C)O2 (stereo not drawn) [3874 H3]
[1]
  MIC: 16 µg/mL (≈ 14.9 µM)
[2]
  MIC: 4 µg/mL (≈ 3.72 µM)
[3]
  MIC: 8 µg/mL (≈ 7.45 µM)
[4]
  MIC: 4 µg/mL (≈ 3.72 µM)
[5]
  MIC: 4 µg/mL (≈ 3.72 µM)
[6]
  MIC: 4 µg/mL (≈ 3.72 µM)
[7]
  MIC: 4 µg/mL (≈ 3.72 µM)
[8]
  MIC: 4 µg/mL (≈ 3.72 µM)
[9]
  MIC: 2 µg/mL (≈ 1.86 µM)
[10]
  MIC: 2 µg/mL (≈ 1.86 µM)
[11]
  MIC: 4 µg/mL (≈ 3.72 µM)
[12]
  MIC: 4 µg/mL (≈ 3.72 µM)
[13]
  MIC: 4 µg/mL (≈ 3.72 µM)
[14]
  MIC: 4 µg/mL (≈ 3.72 µM)
[15]
  MIC: 16 µg/mL (≈ 14.9 µM)
[16]
  MIC: 8 µg/mL (≈ 7.45 µM)
[17]
  MIC: 16 µg/mL (≈ 14.9 µM)
[18]
  zone of inhibition at 25 µg/mL: 14 mm
  zone of inhibition at 50 µg/mL: 18 mm
  zone of inhibition at 100 µg/mL: 20 mm
  zone of inhibition at 200 µg/mL: 22 mm
  zone of inhibition at 6.3 µg/mL: 12 mm
  zone of inhibition at 12.5 µg/mL: 13 mm
[19]
  Solubility: soluble in methanol and other lower alcohols, acetonitrile and chloroform
[20]
  Stability (unstable in / on exposure to): unstable in acidic and strongly alkaline solution and on exposure to light, heat and oxygen
  Stability (stable in): Stable in neutral and weakly alkaline medium
[21]
  Binding to ergosterol versus cholesterol: bind more strongly to ergosterol than to cholesterol

## C[C@@H]1[C@H](O)[C@@H](C)/C=C/C=C/C=C/C=C/C=C/C=C/C=C/[C@H](O[C@@H]2O[C@H](C)[C@@H](O)[C@H](N)[C@@H]2O)C[C@@H]2O[C@](O)(C[C@@H](O)C[C@@H](O)[C@H](O)CC[C@@H](O)C[C@@H](O)CC(=O)O[C@H]1C)C[C@H](O)[C@H]2C(=O)O [Amphotericin B, amphotericin B, reference compound]
[18]; concentration 0.0063 mg/mL
  Zone of inhibition (diameter): .o slashed.
[18]; concentration 0.0125 mg/mL
  Zone of inhibition (diameter): .o slashed.
[18]
  zone of inhibition at 25 µg/mL: 8 mm
  zone of inhibition at 50 µg/mL: 10 mm
  zone of inhibition at 100 µg/mL: 12 mm
  zone of inhibition at 200 µg/mL: 14 mm
[19]
  Solubility: only very low solubility in the said solvents and others
